Assay results as given in ChEMBL document CHEMBL3871284, “Structure-activity relationship-based screening of antibiotics against Gram-negative Acinetobacter baumannii” (Bioorg Med Chem, 2017).
Converted amounts (≈) assume the structure as drawn. The source made the active and inactive calls. The rule behind the calls is not given here.

Assays:
RAW264.7 = assay: Antiinflammatory activity in mouse RAW264.7 cells assessed as inhibition of LPS-stimulated NO production at 10 to 20 uM after 24 hrs in presence of LPS; type: functional, cell-based
Staphylococcus aureus [1] = assay: Antimicrobial activity against Methicillin-resistant Staphylococcus aureus 3126 after 16 hrs by broth microdilution assay; type: functional; conditions: Staphylococcus aureus, 3126, 16 h
Escherichia coli [2] = assay: Antimicrobial activity against multidrug resistant Escherichia coli CCARM 1238 after 16 hrs by broth microdilution assay; type: functional; conditions: CCARM 1238, 16 h
Acinetobacter baumannii [3] = assay: Antimicrobial activity against multidrug resistant Acinetobacter baumannii CCARM 12036 after 16 hrs by broth microdilution assay; type: functional; conditions: CCARM 12036, 16 h
Pseudomonas aeruginosa [4] = assay: Antimicrobial activity against multidrug resistant Pseudomonas aeruginosa CCARM 2002 after 16 hrs by broth microdilution assay; type: functional; conditions: CCARM 2002, 16 h
Acinetobacter baumannii [5] = assay: Antimicrobial activity against multidrug resistant Acinetobacter baumannii CCARM 12005 after 16 hrs by broth microdilution assay; type: functional; conditions: CCARM 12005, 16 h
Pseudomonas aeruginosa [6] = assay: Antimicrobial activity against Pseudomonas aeruginosa KCTC 1637 after 16 hrs by broth microdilution assay; type: functional; conditions: KCTC 1637, 16 h
Pseudomonas aeruginosa [7] = assay: Antimicrobial activity against multidrug resistant Pseudomonas aeruginosa CCARM 2163 after 16 hrs by broth microdilution assay; type: functional; conditions: CCARM 2163, 16 h
Staphylococcus aureus [8] = assay: Antimicrobial activity against Methicillin-resistant Staphylococcus aureus isolate 3114 after 16 hrs by broth microdilution assay; type: functional; conditions: isolate 3114, 16 h
[9] = Binding affinity to Acinetobacter baumannii His-tagged KAS3 expressed in Escherichia coli BL21(DE3) by tryptophan emission assay
[10] = system: Staphylococcus epidermidis; assay: Antimicrobial activity against Staphylococcus epidermidis after 16 hrs by broth microdilution assay; type: functional
Staphylococcus aureus [11] = assay: Antimicrobial activity against Staphylococcus aureus after 16 hrs by broth microdilution assay; type: functional
[12] = Antiinflammatory activity in mouse RAW264.7 cells assessed as inhibition of LPS-stimulated MIP1 mRNA expression at 10 uM after 3 hrs in presence of LPS by RT-PCR analysis; type: functional; conditions: RAW264.7, 3 h
Acinetobacter baumannii [13] = assay: Antimicrobial activity against Acinetobacter baumannii KCTC 2508 after 16 hrs by broth microdilution assay; type: functional; conditions: KCTC 2508, 16 h
Acinetobacter baumannii [14] = assay: Antimicrobial activity against multidrug resistant Acinetobacter baumannii CCARM 12037 after 16 hrs by broth microdilution assay; type: functional; conditions: CCARM 12037, 16 h
Escherichia coli [15] = assay: Antimicrobial activity against Escherichia coli KCTC 1682 after 16 hrs by broth microdilution assay; type: functional; conditions: KCTC 1682, 16 h
[16] = Antiinflammatory activity in mouse RAW264.7 cells assessed as inhibition of LPS-stimulated TNFalpha mRNA expression at 10 uM after 3 hrs in presence of LPS by RT-PCR analysis; type: functional; conditions: RAW264.7, 3 h
[17] = Antiinflammatory activity in mouse RAW264.7 cells assessed as inhibition of LPS-stimulated MIP2 mRNA expression at 10 uM after 3 hrs in presence of LPS by RT-PCR analysis; type: functional; conditions: RAW264.7, 3 h
[18] = Antiinflammatory activity in mouse RAW264.7 cells assessed as inhibition of LPS-stimulated IL6 mRNA expression at 10 uM after 3 hrs in presence of LPS by RT-PCR analysis; type: functional; conditions: RAW264.7, 3 h
Bacillus subtilis = assay: Antimicrobial activity against Bacillus subtilis after 16 hrs by broth microdilution assay; type: functional
Pseudomonas aeruginosa [19] = assay: Antimicrobial activity against multidrug resistant Pseudomonas aeruginosa CCARM 2095 after 16 hrs by broth microdilution assay; type: functional; conditions: CCARM 2095, 16 h
[20] = Antiinflammatory activity in mouse RAW264.7 cells assessed as inhibition of LPS-stimulated iNOS mRNA expression at 10 uM after 3 hrs in presence of LPS by RT-PCR analysis; type: functional; conditions: RAW264.7, 3 h
Acinetobacter baumannii [21] = assay: Antimicrobial activity against multidrug resistant Acinetobacter baumannii CCARM 12035 after 16 hrs by broth microdilution assay; type: functional; conditions: CCARM 12035, 16 h
[22] = Binding affinity to Acinetobacter baumannii His-tagged KAS3 expressed in Escherichia coli BL21(DE3) by isothermal titration calorimetry assay
Escherichia coli [23] = assay: Antimicrobial activity against multidrug resistant Escherichia coli CCARM 1229 after 16 hrs by broth microdilution assay; type: functional; conditions: CCARM 1229, 16 h
[24] = Antiinflammatory activity in mouse RAW264.7 cells assessed as inhibition of LPS-stimulated IL1beta mRNA expression at 10 uM after 3 hrs in presence of LPS by RT-PCR analysis; type: functional; conditions: RAW264.7, 3 h

SMILES | MIC (Staphylococcus aureus [1]) [µg/mL] | MIC (Escherichia coli [2]) [µg/mL] | MIC (Acinetobacter baumannii [3]) [µg/mL] | MIC (Pseudomonas aeruginosa [4]) [µg/mL] | MIC (Acinetobacter baumannii [5]) [µg/mL] | MIC (Pseudomonas aeruginosa [6]) [µg/mL] | MIC (Pseudomonas aeruginosa [7]) [µg/mL] | MIC (Staphylococcus aureus [8]) [µg/mL] | Kd [9] [µM] | MIC [10] [µg/mL] | MIC (Staphylococcus aureus [11]) [µg/mL] | MIC (Acinetobacter baumannii [13]) [µg/mL] | MIC (Acinetobacter baumannii [14]) [µg/mL] | MIC (Escherichia coli [15]) [µg/mL] | MIC (Bacillus subtilis) [µg/mL] | MIC (Pseudomonas aeruginosa [19]) [µg/mL] | MIC (Acinetobacter baumannii [21]) [µg/mL] | MIC (Escherichia coli [23]) [µg/mL] | also measured
Cc1ccc(/C=N/NCc2ccc(O)cc2O)cc1Cl | > 32 | > 32 | 2 (≈ 6.88 µM) | > 32 | 4 (≈ 13.8 µM) | 4 (≈ 13.8 µM) | 32 (≈ 110 µM) | 32 (≈ 110 µM) | 0.916 | 8 (≈ 27.5 µM) | 8 (≈ 27.5 µM) | 2 (≈ 6.88 µM) | 2 (≈ 6.88 µM) | 32 (≈ 110 µM) | 16 (≈ 55 µM) | 32 (≈ 110 µM) | 2 (≈ 6.88 µM) | > 32 | inhibition (RAW264.7): Active; inhibition at 10 µM [12]: > 70%; inhibition at 10 µM [16]: > 70%; inhibition at 10 µM [17]: > 70%; inhibition at 10 µM [18]: 50.6%; inhibition at 10 µM [20]: > 70%; Kd [22]: 0.197 µM; inhibition at 10 µM [24]: 10.3%
CCCOc1ccc(/C=N/NCc2ccc(C(F)(F)F)cc2)c(O)c1 | > 32 | > 32 | > 32 | > 32 | > 32 | > 32 | > 32 | > 32 | 28.8 | > 32 | > 32 | > 32 | > 32 | > 32 | > 32 | > 32 | > 32 | > 32 | 
COc1ccc(/C=N/NCc2ccc(C(=O)O)cc2)c(OC)c1 | > 32 | > 32 | > 32 | > 32 | > 32 | > 32 | > 32 | > 32 | 72.5 | > 32 | > 32 | > 32 | > 32 | > 32 | > 32 | > 32 | > 32 | > 32 | 
CCCOc1ccc(/C=N/NCc2ccc3ccccc3c2)c(O)c1 | > 32 | > 32 | > 32 | > 32 | > 32 | > 32 | > 32 | > 32 | 21.7 | > 32 | > 32 | > 32 | > 32 | > 32 | > 32 | > 32 | > 32 | > 32 | 
COc1ccc(/C=N/NCc2ccc(C)cc2)c(O)c1 | > 32 | > 32 | > 32 | > 32 | > 32 | > 32 | > 32 | > 32 | > 100 | > 32 | > 32 | > 32 | > 32 | > 32 | > 32 | > 32 | > 32 | > 32 | 
CCOc1ccc(/C=N/NCc2ccc(Cl)c(Cl)c2)c(O)c1 | > 32 | > 32 | > 32 | > 32 | > 32 | > 32 | > 32 | > 32 | > 100 | > 32 | > 32 | > 32 | > 32 | > 32 | > 32 | > 32 | > 32 | > 32 | 
